Drawing on ChEMBL document CHEMBL3124811, “Potent and selective double-headed thiophene-2-carboximidamide inhibitors of neuronal nitric oxide synthase for the treatment of melanoma” (J Med Chem, 2014), this text covers Ratio Ki(app) and Ki for 6 compounds.

Experiment [1] in a line: Selectivity ratio of Ki(app) for recombinant mouse iNOS to Ki(app) for recombinant rat nNOS.
Experiment [2] can be described thus: Selectivity ratio of Ki(app) for recombinant bovine eNOS to Ki(app) for recombinant rat nNOS.
The target of experiment [3] is T1, Nitric oxide synthase, inducible (Mus musculus, UniProt P29477).
T1 sequence (P29477 whole entry): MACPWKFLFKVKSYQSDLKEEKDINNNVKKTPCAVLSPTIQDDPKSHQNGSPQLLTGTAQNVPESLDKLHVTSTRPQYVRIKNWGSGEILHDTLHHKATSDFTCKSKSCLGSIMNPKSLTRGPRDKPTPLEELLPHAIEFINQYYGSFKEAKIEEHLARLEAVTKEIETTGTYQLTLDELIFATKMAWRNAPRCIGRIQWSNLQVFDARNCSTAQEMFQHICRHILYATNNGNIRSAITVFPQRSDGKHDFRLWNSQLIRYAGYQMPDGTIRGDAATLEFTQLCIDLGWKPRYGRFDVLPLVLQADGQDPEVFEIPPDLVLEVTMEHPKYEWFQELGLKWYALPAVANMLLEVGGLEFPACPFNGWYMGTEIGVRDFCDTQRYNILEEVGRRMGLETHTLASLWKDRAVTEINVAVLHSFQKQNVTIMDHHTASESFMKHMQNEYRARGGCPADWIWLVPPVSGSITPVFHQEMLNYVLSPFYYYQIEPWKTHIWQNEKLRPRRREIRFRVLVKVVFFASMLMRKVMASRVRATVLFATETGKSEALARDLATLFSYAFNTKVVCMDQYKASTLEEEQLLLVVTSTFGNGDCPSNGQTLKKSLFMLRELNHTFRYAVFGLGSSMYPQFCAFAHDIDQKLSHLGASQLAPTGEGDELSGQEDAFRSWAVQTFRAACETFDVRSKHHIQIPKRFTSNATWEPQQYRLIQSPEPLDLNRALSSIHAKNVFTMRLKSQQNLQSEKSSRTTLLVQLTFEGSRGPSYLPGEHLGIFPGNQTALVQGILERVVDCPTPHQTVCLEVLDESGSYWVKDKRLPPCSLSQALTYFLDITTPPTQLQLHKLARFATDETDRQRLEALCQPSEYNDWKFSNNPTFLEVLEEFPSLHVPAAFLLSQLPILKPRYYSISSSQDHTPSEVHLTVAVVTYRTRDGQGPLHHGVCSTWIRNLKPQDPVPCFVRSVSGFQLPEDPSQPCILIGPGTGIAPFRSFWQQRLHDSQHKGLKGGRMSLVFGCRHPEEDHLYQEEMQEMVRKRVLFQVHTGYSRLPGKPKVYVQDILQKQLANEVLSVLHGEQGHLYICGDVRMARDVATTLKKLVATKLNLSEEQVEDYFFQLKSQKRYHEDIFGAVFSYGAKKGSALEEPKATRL

Experiment [4] concerns the target T2, Nitric oxide synthase 3 (Bos taurus, UniProt P29473).
T2 sequence (P29473 whole entry): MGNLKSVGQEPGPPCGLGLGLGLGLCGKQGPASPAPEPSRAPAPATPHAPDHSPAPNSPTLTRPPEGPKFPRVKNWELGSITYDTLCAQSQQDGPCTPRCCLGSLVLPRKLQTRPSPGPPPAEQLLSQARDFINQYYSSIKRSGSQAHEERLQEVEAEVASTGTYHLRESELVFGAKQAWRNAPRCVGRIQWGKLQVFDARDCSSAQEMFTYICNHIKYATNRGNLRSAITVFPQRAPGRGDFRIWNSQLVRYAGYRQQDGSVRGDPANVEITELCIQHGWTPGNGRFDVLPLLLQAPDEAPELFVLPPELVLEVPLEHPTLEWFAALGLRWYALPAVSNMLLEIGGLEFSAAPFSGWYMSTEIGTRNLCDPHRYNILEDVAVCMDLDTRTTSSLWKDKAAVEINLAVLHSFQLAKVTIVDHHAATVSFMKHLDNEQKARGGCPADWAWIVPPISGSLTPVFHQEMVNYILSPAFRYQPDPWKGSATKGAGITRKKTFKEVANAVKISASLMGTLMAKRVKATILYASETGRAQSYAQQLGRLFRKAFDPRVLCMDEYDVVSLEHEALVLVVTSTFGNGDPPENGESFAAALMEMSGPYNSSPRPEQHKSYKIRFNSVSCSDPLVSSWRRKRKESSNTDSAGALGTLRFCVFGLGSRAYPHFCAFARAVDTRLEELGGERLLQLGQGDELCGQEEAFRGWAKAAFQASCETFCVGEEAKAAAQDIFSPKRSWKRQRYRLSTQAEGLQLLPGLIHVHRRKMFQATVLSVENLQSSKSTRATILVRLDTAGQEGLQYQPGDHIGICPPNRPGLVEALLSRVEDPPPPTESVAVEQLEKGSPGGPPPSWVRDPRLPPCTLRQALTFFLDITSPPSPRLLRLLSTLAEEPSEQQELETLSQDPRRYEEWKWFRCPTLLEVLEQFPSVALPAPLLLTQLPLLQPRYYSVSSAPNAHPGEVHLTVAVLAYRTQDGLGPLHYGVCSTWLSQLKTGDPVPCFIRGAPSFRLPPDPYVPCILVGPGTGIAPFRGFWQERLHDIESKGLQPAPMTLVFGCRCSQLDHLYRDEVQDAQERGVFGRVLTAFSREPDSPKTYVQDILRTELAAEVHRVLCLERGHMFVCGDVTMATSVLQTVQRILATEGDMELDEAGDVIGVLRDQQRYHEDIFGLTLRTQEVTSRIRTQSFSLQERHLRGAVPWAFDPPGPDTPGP

Experiment [5] has as its target Nitric oxide synthase 1 (Rattus norvegicus, UniProt P29476).

Nitric oxide synthase 1, sequence (P29476 whole entry): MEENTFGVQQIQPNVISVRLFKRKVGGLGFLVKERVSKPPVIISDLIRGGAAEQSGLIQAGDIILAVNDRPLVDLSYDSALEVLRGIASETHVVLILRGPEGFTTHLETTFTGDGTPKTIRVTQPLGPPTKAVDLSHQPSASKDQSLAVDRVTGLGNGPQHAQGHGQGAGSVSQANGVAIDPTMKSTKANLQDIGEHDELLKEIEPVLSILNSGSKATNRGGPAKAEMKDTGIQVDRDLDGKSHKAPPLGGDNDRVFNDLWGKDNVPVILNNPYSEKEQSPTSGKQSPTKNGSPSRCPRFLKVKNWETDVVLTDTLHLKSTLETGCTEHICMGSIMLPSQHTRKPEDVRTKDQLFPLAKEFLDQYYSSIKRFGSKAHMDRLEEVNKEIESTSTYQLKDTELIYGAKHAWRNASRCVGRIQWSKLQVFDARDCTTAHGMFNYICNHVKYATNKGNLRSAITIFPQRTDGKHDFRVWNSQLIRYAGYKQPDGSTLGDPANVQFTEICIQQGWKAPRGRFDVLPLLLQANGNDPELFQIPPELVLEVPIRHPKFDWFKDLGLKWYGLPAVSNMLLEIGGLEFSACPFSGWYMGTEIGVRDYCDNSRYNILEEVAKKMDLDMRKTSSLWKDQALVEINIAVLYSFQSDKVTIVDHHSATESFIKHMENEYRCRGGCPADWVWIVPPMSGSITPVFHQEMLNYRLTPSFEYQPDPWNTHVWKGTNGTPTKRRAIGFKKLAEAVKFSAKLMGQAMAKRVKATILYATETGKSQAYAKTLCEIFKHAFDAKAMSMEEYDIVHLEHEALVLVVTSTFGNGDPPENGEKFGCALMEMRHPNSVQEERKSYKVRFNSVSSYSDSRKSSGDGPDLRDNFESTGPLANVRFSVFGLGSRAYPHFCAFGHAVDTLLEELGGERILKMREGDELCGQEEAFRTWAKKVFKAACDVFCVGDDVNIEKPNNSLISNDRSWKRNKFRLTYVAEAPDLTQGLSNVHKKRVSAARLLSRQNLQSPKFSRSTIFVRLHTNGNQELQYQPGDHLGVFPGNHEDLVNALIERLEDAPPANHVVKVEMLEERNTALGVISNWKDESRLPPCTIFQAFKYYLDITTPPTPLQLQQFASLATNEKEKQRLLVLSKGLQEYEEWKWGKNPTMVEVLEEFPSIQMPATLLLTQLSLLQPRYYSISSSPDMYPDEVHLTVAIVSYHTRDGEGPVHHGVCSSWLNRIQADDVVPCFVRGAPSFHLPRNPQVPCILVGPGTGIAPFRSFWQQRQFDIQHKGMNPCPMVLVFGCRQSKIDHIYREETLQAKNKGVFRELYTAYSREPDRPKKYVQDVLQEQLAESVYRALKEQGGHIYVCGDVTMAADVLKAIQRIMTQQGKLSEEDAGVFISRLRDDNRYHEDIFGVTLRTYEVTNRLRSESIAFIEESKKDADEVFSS

In the case of `N=C(Nc1cccc(OCCOc2cccc(NC(=N)c3cccs3)c2)c1)c1cccs1`, the Ratio Ki(app) stood at 513 in experiment [1] and 105 in experiment [2].
As for `NC(=Nc1cccc(OCCOc2cccc(N=C(N)c3cccs3)c2)c1)c1cccs1`, the results for the Ki in experiment [3], in experiment [4] and in experiment [5] were 66.8 µM, 13.7 µM and 0.13 µM, respectively.
For the compound `N=C(Nc1cccc(OCCCOc2cccc(NC(=N)c3cccs3)c2)c1)c1cccs1`, the figures for the Ki in experiment [3], in experiment [4] and in experiment [5] were 12.6 µM, 4 µM and 0.237 µM, respectively. The results for the Ratio Ki(app) in experiment [1] and in experiment [2] were 53 and 17, respectively.
Taken in the same sequence, the figures for `N=C(Nc1cccc(CCc2cccc(NC(=N)c3cccs3)c2)c1)c1cccs1` were 104 µM, 66 µM, 0.739 µM, 141 and 89.
In the case of `NC(=Nc1cccc(Cc2cccc(N=C(N)c3cccs3)c2)c1)c1cccs1`, the Ki worked out at 79 µM in experiment [3] and 133 µM in experiment [4].
`N=C(Nc1cccc(-c2cccc(NC(=N)c3cccs3)c2)c1)c1cccs1`: the Ki was 66.4 µM in experiment [3], 177 µM in experiment [4] and 0.787 µM in experiment [5]. The values for the Ratio Ki(app) in experiment [1] and in experiment [2] were 84 and 225, respectively.

Usually Ki stands for a dissociation constant, usually derived from enzyme kinetics or from competition with a known ligand. A high value points to lower affinity.
